Laboratory results as given in ChEMBL document CHEMBL1201862, “PubChem BioAssay data set” (2004).
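These data come from cells grown in 96-well plates and exposed to compound for 48 hours at five concentrations. GI50 is the concentration that inhibits growth by half.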 Active and inactive are the calls of the source. Rule as the data show it: active = GI50 up to about 1.1 µM and inactive = higher.

Columns and labels:
Experiment in all cases: DTP human tumour cell line panel, 48 h
[1] = system: SK-MEL-5
[2] = system: MOLT-4
[3] = system: NCI-H226
[4] = system: M19-MEL
[5] = system: K562
[6] = system: CAKI-1
[7] = system: SN12C
[8] = system: OVCAR-4
[9] = system: OVCAR-8
[10] = system: SK-OV-3
[11] = system: SR
[12] = system: A498
[13] = system: NCI-H522
[14] = system: HL-60
[15] = system: IGROV-1
[16] = system: SF-295
[17] = system: U-251
[18] = system: SF-268
[19] = system: DMS-273
[20] = system: SK-MEL-2
[21] = system: SF-539
[22] = system: DLD-1
[23] = system: LXFL 529
[24] = system: OVCAR-3
[25] = system: 786-0
[26] = system: HCT-15
[27] = system: UO-31
[28] = system: UACC-257
[29] = system: LOX IMVI
[30] = system: SW-620
[31] = system: SNB-19
[32] = system: Malme-3M
[33] = system: HT-29
[34] = system: HCT-116
[35] = system: M14
[36] = system: HOP-62
[37] = system: KM12
[38] = system: SK-MEL-28
[39] = system: OVCAR-5
[40] = system: RXF 631
[41] = system: SNB-75
[42] = system: NCI-H460
[43] = system: HCC 2998
[44] = system: DMS-114
[45] = system: A549
[46] = system: ACHN
[47] = system: RPMI-8226
[48] = system: Hs-578T
[49] = system: T47D
[50] = system: MDA-MB-231
[51] = system: HOP-92
[52] = system: CCRF-CEM
[53] = system: MDA-MB-435
[54] = system: SNB-78
[55] = system: TK-10
[56] = system: DU-145
[57] = system: EKVX
[58] = system: XF498
[59] = system: NCI/ADR-RES
[60] = system: NCI-H23
[61] = system: COLO 205
[62] = system: UACC-62
[63] = system: HOP-18
[64] = system: RXF 393
[65] = system: PC-3
[66] = system: MCF7
[67] = system: KM-20L2

**Q.** Which results are given for `CCN(CC)CCNc1ccc2nc(C)n3c4ccc(O)cc4c(=O)c1c23`?
**A.** GI50 [1]: 2.01 µM (inactive); GI50 [2]: 0.0447 µM (active); GI50 [3]: 0.16 µM (active); GI50 [4]: 3.49 µM (inactive); GI50 [5]: 1.48 µM (inactive); GI50 [6]: 1.24 µM (inactive); GI50 [7]: 0.618 µM (active); GI50 [8]: 0.525 µM (active); GI50 [9]: 0.371 µM (active); GI50 [10]: 1.14 µM (inactive); GI50 [11]: 0.049 µM (active); GI50 [12]: 2.69 µM (inactive); GI50 [13]: 0.179 µM (active); GI50 [14]: 0.286 µM (active); GI50 [15]: 1.38 µM (inactive); GI50 [16]: 0.462 µM (active); GI50 [17]: 0.745 µM (active); GI50 [18]: 0.481 µM (active); GI50 [19]: 0.37 µM (active); GI50 [20]: 7.24 µM (inactive); GI50 [21]: 1.79 µM (inactive); GI50 [22]: 0.371 µM (active); GI50 [23]: 0.78 µM (active); GI50 [24]: 1.97 µM (inactive); GI50 [25]: 0.381 µM (active); GI50 [26]: 0.64 µM; GI50 [27]: 1.94 µM (inactive); GI50 [28]: 8.63 µM (inactive); GI50 [29]: 0.71 µM (active); GI50 [30]: 0.596 µM (active); GI50 [31]: 0.546 µM (active); GI50 [32]: 3.56 µM (inactive); GI50 [33]: 0.246 µM (active); GI50 [34]: 0.357 µM (active); GI50 [35]: 2.99 µM (inactive); GI50 [36]: 0.975 µM (active); GI50 [37]: 3.02 µM (inactive); GI50 [38]: 2.77 µM (inactive); GI50 [39]: 0.479 µM (active); GI50 [40]: 0.331 µM (active); GI50 [41]: 1.09 µM (active); GI50 [42]: 0.215 µM (active); GI50 [43]: 0.552 µM (active); GI50 [44]: 1.42 µM (inactive); GI50 [45]: 0.179 µM (active); GI50 [46]: 0.231 µM (active); GI50 [47]: 2.16 µM (inactive)

**Q.** With `COc1cc(/C=C/c2ccc(/C=C/c3cc(OC)c(OC)c(OC)c3)cc2)cc(OC)c1OC` as the molecule, how does the GI50 [48] read?
**A.** 18.9 µM (inactive)

**Q.** What about the GI50 [1] of the same molecule?
**A.** 34.4 µM (inactive)

**Q.** And the GI50 [49]?
**A.** 3.39 µM (inactive)

**Q.** What about the GI50 [2] of the same molecule?
**A.** > 100 µM (inactive)

**Q.** And the GI50 [50]?
**A.** 19.9 µM (inactive)

**Q.** And the GI50 [3]?
**A.** 20.3 µM (inactive)

**Q.** And the GI50 [4]?
**A.** 32.9 µM (inactive)

**Q.** What about the GI50 [5] of the same molecule?
**A.** 96.2 µM (inactive)

**Q.** And the GI50 [6]?
**A.** 21.6 µM (inactive)

**Q.** What about the GI50 [7] of the same molecule?
**A.** 56.8 µM (inactive)

**Q.** What about the GI50 [8] of the same molecule?
**A.** 3.98 µM (inactive)

**Q.** What about the GI50 [51] of the same molecule?
**A.** 15.4 µM (inactive)

**Q.** And the GI50 [9]?
**A.** 12.2 µM (inactive)

**Q.** And the GI50 [10]?
**A.** 6 µM (inactive)

**Q.** And the GI50 [11]?
**A.** > 100 µM (inactive)

**Q.** What about the GI50 [12] of the same molecule?
**A.** 10.5 µM (inactive)

**Q.** And the GI50 [13]?
**A.** 8.11 µM (inactive)

**Q.** What about the GI50 [14] of the same molecule?
**A.** > 66.5 µM (inactive)

**Q.** What about the GI50 [52] of the same molecule?
**A.** > 100 µM (inactive)

**Q.** And the GI50 [53]?
**A.** 55.2 µM (inactive)

**Q.** And the GI50 [15]?
**A.** 26.5 µM (inactive)

**Q.** And the GI50 [54]?
**A.** 26.1 µM (inactive)

**Q.** And the GI50 [16]?
**A.** 10.9 µM (inactive)

**Q.** And the GI50 [17]?
**A.** 13.3 µM (inactive)

**Q.** What about the GI50 [55] of the same molecule?
**A.** 17.6 µM (inactive)

**Q.** And the GI50 [18]?
**A.** 11.7 µM (inactive)

**Q.** What about the GI50 [56] of the same molecule?
**A.** 88.7 µM (inactive)

**Q.** What about the GI50 [19] of the same molecule?
**A.** 14.6 µM (inactive)

**Q.** And the GI50 [57]?
**A.** > 46.9 µM (inactive)

**Q.** What about the GI50 [20] of the same molecule?
**A.** 20.7 µM (inactive)

**Q.** What about the GI50 [58] of the same molecule?
**A.** 17 µM (inactive)

**Q.** What about the GI50 [21] of the same molecule?
**A.** 4.6 µM (inactive)

**Q.** What about the GI50 [59] of the same molecule?
**A.** 22.2 µM (inactive)

**Q.** And the GI50 [60]?
**A.** 12.3 µM (inactive)

**Q.** And the GI50 [22]?
**A.** 42.3 µM (inactive)

**Q.** And the GI50 [23]?
**A.** 11.9 µM (inactive)

**Q.** And the GI50 [24]?
**A.** 25.2 µM (inactive)

**Q.** And the GI50 [25]?
**A.** 7.94 µM (inactive)

**Q.** And the GI50 [26]?
**A.** > 100 µM

**Q.** What about the GI50 [27] of the same molecule?
**A.** 36.1 µM (inactive)

**Q.** What about the GI50 [28] of the same molecule?
**A.** 58.7 µM (inactive)

**Q.** And the GI50 [29]?
**A.** 34.4 µM (inactive)

**Q.** What about the GI50 [61] of the same molecule?
**A.** 51.3 µM (inactive)

**Q.** And the GI50 [62]?
**A.** 7.89 µM (inactive)

**Q.** And the GI50 [30]?
**A.** > 84.9 µM (inactive)

**Q.** What about the GI50 [31] of the same molecule?
**A.** 13.6 µM (inactive)

**Q.** What about the GI50 [32] of the same molecule?
**A.** 20.3 µM (inactive)

**Q.** And the GI50 [63]?
**A.** 32.1 µM (inactive)

**Q.** What about the GI50 [33] of the same molecule?
**A.** 8.26 µM (inactive)

**Q.** And the GI50 [34]?
**A.** 28.7 µM (inactive)

**Q.** What about the GI50 [35] of the same molecule?
**A.** 39.3 µM (inactive)

**Q.** What about the GI50 [64] of the same molecule?
**A.** 6.68 µM (inactive)

**Q.** What about the GI50 [36] of the same molecule?
**A.** 16.6 µM (inactive)

**Q.** And the GI50 [65]?
**A.** 27.5 µM (inactive)

**Q.** What about the GI50 [37] of the same molecule?
**A.** 29.5 µM (inactive)

**Q.** And the GI50 [38]?
**A.** 26.1 µM (inactive)

**Q.** And the GI50 [39]?
**A.** 60.5 µM (inactive)

**Q.** What about the GI50 [41] of the same molecule?
**A.** 6.34 µM (inactive)

**Q.** What about the GI50 [66] of the same molecule?
**A.** > 100 µM (inactive)

**Q.** And the GI50 [42]?
**A.** 25.5 µM (inactive)

**Q.** What about the GI50 [43] of the same molecule?
**A.** 22.2 µM (inactive)

**Q.** What about the GI50 [44] of the same molecule?
**A.** 22.4 µM (inactive)

**Q.** What about the GI50 [45] of the same molecule?
**A.** 40.9 µM (inactive)

**Q.** And the GI50 [46]?
**A.** 16.3 µM (inactive)

**Q.** What about the GI50 [67] of the same molecule?
**A.** 20.8 µM (inactive)

**Q.** And the GI50 [47]?
**A.** 41.6 µM (inactive)
